Measured values published in patent US10005792B2, “Aminoindane-, aminotetrahydronaphthalene- and aminobenzocyclobutane-derived PRMT5-inhibitors” (CTXT PTY LTD, priority 2014, dated 2018).

Key:
[1] = target: T1, Full-length PRMT5 enzyme co-expressed with MEP50 (Homo sapiens (Human), UniProt O14744); assay: PRMT5 Biochemical Assay; details: 200 nM histone H4 derived peptide substrate, 1 μM S-Adenosyl methionine, 4 hours at 37° C, Transcreener EPIGEN fluorescence polarisation
[2] = tested on: symmetrical dimethylation of arginine (Di-Methyl Histone H4R3) in cell line TE11; assay: PRMT5 Biomarker Assay; type: cell-based; details: Homo sapiens, TE-11; TE11 cells, 72 h incubation, EpiQuik Global Di-Methyl Histone H4R3 ELISA, corrected for total protein
Experimental: (§1) Compounds of the invention may be tested for potency to inhibit symmetrical dimethylation of arginine in the following assay:
The cell line TE11 was seeded at a density of 12,000 cells per well in 96 well tissue culture plates in DME medium and 10% foetal bovine serum, and allowed to adhere overnight under standard culture conditions (37° C., 5% CO2). Compound dilutions prepared in DMSO were added to the medium, with negative control wells reserved for treatment with DMSO only and positive controls receiving a potent PRMT5 inhibitor. The concentration of the inhibitor had been previously determined to give maximum inhibition of the methylation. After incubation for 72 h, cells were washed twice in ice-cold PBS, lysed in lysis buffer (20 mM Tris pH 7.4, 135 mM NaCl, 1.5 mM MgCl2, 1 mM EGTA, 10% glycerol and 1% Triton-X100), centrifuged at 15,000×g and the supernatants collected for subsequent analysis. The methylation level was determined using the EpiQuik™ Global Di-Methyl Histone H4R3 Quantification ELISA Kit (Epigentek, Farmingdale, N.Y.) as per the manufacturer's recommendations; in parallel the total protein amount in the lysate was quantified using a Lowry protein assay. The methylation level was corrected for the total protein amount of each sample, normalised to the controls, and the data fitted against a four-parameter logistic model to determine the 50% inhibitory concentration (IC50).

[3] = tested on: symmetrical dimethylation of arginine (Di-Methyl Histone H4 Arginine 3) in cell line TE11; assay: Revised PRMT5 Biomarker Assay; details: Homo sapiens, TE-11; TE11 cells, 72 hours incubation, immunofluorescence, corrected for cell number (Hoechst 33342), plate reader based
Experimental: as §1
The cell line TE11 was seeded at a density of 6,000 cells per well in 96 well optical quality tissue culture plates in DME medium and 10% foetal bovine serum, and allowed to adhere for 5 hours under standard culture conditions (37 degree Celsius, 5% CO2). Compound dilutions prepared in DMSO were added to the medium, with negative control wells reserved for treatment with DMSO only and positive controls receiving a potent PRMT5 inhibitor compound at 1 μM concentration. After incubation for 72 hours, the cells were fixed with 3.7% formaldehyde in PBS for 30 minutes at room temperature, washed with phosphate buffer saline and blocked with Odyssey blocking buffer (LI-COR, Lincoln, Nebr.). Rabbit anti-Di-Methyl Histone H4 Arginine 3 specific antibody (Epigentek) in Odyssey blocking buffer was added and incubated for 14 hours at 4 degree Celsius. After washing, anti-rabbit secondary antibody labelled with Alexa647 dye (LifeTechnologies) and Hoechst 33342 (1 μg/mL, SigmaAldrich) were added for 1 hour incubation. Plates were washed and read on a PerkinElmer Envision 2103 in fluorescence intensity scanning mode (24 scans across the well area). The methylation level information was corrected for the number of cells as expressed by the Hoechst 33342 stain, converted to percent inhibition relative to controls on the same plate and the data fitted against a four-parameter logistic model to determine the 50% inhibitory concentration (IC50 plate-reader based). Alternatively, the plates were imaged on a PerkinElmer Phenix high content imaging platform. Using a Columbus image analysis pipeline, individual nuclei were located by Hoechst 33342 stain and the methylation level was calculated from the Alexa647-related intensity in the same area. The resulting mean intensity per cell was directly converted to percent inhibition as outlined above (IC50, imager based)).

[4] = target: T1, Full-length PRMT5 enzyme co-expressed with MEP50; assay: Revised PRMT5 Biochemical Assay; details: 1 μM histone H4 derived peptide substrate, 1 μM S-Adenosyl methionine, 4 hours at 37 degree Celsius, Transcreener EPIGEN fluorescence polarisation
How it was run: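 Full-length human PRMT5 co-expressed with His-MEP50 in insect cells (15 ng/reaction), 1 μM H4-derived peptide and 1 μM SAM in PBS/0.01% Tween-20/egg albumin/1 mM DTT, 4 h at 37 °C. SAH formation read by Transcreener EPIGEN fluorescence polarisation after 90 min detection. IC50 from four-parameter fit of plate-normalised % inhibition.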

T1 sequence (O14744 whole entry): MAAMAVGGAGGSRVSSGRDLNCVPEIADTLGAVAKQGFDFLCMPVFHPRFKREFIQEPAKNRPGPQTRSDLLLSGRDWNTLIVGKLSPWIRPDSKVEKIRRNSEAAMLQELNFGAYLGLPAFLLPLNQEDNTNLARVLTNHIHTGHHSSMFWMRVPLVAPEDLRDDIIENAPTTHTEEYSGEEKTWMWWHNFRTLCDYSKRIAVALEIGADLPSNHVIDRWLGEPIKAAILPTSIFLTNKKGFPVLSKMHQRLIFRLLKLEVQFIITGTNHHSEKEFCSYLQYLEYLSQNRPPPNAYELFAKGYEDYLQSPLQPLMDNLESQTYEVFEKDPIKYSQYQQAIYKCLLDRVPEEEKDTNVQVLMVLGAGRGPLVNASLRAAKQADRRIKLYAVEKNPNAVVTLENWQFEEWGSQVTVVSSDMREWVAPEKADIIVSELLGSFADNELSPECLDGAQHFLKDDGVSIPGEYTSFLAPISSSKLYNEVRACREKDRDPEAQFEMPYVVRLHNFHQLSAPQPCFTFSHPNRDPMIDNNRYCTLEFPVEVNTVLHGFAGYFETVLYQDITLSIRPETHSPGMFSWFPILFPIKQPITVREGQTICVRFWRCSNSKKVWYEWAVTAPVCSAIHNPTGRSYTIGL
T1 sequence (Q9BQA1 whole entry partner): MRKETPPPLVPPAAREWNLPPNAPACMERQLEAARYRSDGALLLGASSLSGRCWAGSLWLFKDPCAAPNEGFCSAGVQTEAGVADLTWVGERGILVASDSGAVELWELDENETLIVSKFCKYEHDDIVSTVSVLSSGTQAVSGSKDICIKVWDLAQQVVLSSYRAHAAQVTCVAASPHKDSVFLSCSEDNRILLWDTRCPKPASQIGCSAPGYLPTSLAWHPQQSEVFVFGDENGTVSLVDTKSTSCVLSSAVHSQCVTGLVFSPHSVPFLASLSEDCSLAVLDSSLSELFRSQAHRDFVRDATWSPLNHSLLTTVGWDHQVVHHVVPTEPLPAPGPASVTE

Row | IC50 [1] | IC50 [2] | IC50 [3] | IC50 [4] | SMILES
1 | 171 nM | 18 nM | 0.106 µM | – | O=C(NCC(O)CNC1Cc2ccccc2C1)c1ccc(C(=O)N2CCCCC2)cc1 (centres unmarked) [Compound 22, N-(3-((2,3-Dihydro-1H-inden-2-yl)amino)-2-hydroxypropyl)-4-(piperidine-1-carbonyl)benzamide]
2 | 218 nM | 30 nM | 0.025 µM | – | O=C(NC[C@@H](O)CNC1Cc2ccccc2C1)c1ccc(C(=O)N2CCOCC2)cc1 [Compound 15, (S)-N-(3-((2,3-Dihydro-1H-inden-2-yl)amino)-2-hydroxypropyl)-4-(morpholine-4-carbonyl)benzamide]
3 | 50 nM | 8 nM | 0.04 µM | 155 nM | CC(=O)N1CCC(Nc2cc(C(=O)NCC(O)CNC3Cc4ccccc4C3)ccn2)CC1 (centres unmarked) [Compound 35, 2-((1-Acetylpiperidin-4-yl)amino)-N-(3-((2,3-dihydro-1H-inden-2-yl)amino)-2-hydroxypropyl)isonicotinamide]
4 | – | 7 nM | 0.361 µM | 281 nM | COc1cc(C(=O)N2CCOCC2)ccc1C(=O)NC[C@@H](O)CNC1Cc2ccccc2C1 [Compound 98, (S)-N-(3-((2,3-dihydro-1H-inden-2-yl)amino)-2-hydroxypropyl)-2-methoxy-4-(morpholine-4-carbonyl)benzamide]
5 | 210 nM | 11 nM | 0.053 µM | 310 nM | C[C@H]1COCCN1C(=O)c1ccc(C(=O)NC[C@@H](O)CNC2Cc3ccccc3C2)cc1 [Compound 38, N—((S)-3-((2,3-Dihydro-1H-inden-2-yl)amino)-2-hydroxypropyl)-4-((S)-3-methylmorpholine-4-carbonyl)benzamide]

Row | SMILES | IC50 [1] | IC50 [2] | IC50 [3] | IC50 [4]
6 | O=C(NCC(O)CNC1Cc2ccccc2C1)c1ccc(C(=O)N2C3CCC2COC3)cc1 (centres unmarked) [Compound 40, 4-(3-Oxa-8-azabicyclo[3.2.1]octane-8-carbonyl)-N-(3-((2,3-dihydro-1H-inden-2-yl)amino)-2-hydroxypropyl)benzamide] | 57 nM | 2 nM | 0.021 µM | –
